Results published in publication PMC10218905, “Improving the Enzymatic Activity and Stability of a Lytic Polysaccharide Monooxygenase” (International Journal of Molecular Sciences, 2023).

Experiments:
Assay in all cases: spectrophotometric oxidation assay at […] nm
Type in all cases: biochemical
Conditions in all cases: 100 µM H2O2 co-substrate, copper-loaded enzyme, 100 mM sodium acetate pH 6.0, 30 °C; read-out: Km app
BaLPMO10A [1] = target: T1, BaLPMO10A (Bacillus velezensis, UniProt A7Z541, V67L, form not given)
T1 construct: gene RBAM_017540; mature enzyme with native N-terminus; N-terminal SUMO tag cleaved, C-terminal 6xHis tag; pET-20b, E. coli BL21(DE3); copper-saturated
T1 sequence (A7Z541 entry or part of it V67L, form open): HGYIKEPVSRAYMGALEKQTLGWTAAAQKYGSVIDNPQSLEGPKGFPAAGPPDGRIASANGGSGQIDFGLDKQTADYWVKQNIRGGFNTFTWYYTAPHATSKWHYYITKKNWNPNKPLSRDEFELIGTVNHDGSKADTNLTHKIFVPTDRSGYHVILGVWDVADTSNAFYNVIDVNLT

BaLPMO10A [2] = target: T2, BaLPMO10A (Bacillus velezensis, UniProt A7Z541, V67L/E151D, form not given)
T2 construct: gene RBAM_017540; mature enzyme with native N-terminus; N-terminal SUMO tag cleaved, C-terminal 6xHis tag; pET-20b, E. coli BL21(DE3); copper-saturated
T2 sequence (A7Z541 entry or part of it V67L/E151D, form open): as the sequence (A7Z541 entry or part of it V67L, form open) above, with E124D counted along it

BaLPMO10A [3] = target: T3, BaLPMO10A (Bacillus velezensis, UniProt A7Z541)
T3 construct: gene RBAM_017540; mature enzyme with native N-terminus; N-terminal SUMO tag cleaved, C-terminal 6xHis tag; pET-20b, E. coli BL21(DE3); copper-saturated
T3 sequence (A7Z541 entry or part of it): as the sequence (A7Z541 entry or part of it V67L, form open) above, with L40V counted along it

BaLPMO10A [4] = target: T4, BaLPMO10A (Bacillus velezensis, UniProt A7Z541, I31V/E151D, form not given)
T4 construct: gene RBAM_017540; mature enzyme with native N-terminus; N-terminal SUMO tag cleaved, C-terminal 6xHis tag; pET-20b, E. coli BL21(DE3); copper-saturated
T4 sequence (A7Z541 entry or part of it I31V/E151D, form open): as the sequence (A7Z541 entry or part of it V67L, form open) above, with I4V, L40V, E124D counted along it

- Km (BaLPMO10A [1]): 32.5 ± 3.6 mM
- Km (BaLPMO10A [2]): 33.5 ± 1.6 mM
- Km (BaLPMO10A [3]): 41.3 ± 7.33 mM
- Km (BaLPMO10A [4]): 95.5 ± 9.5 mM
SMILES: COc1cccc(OC)c1O [2,6-DMP, 2,6-Dimethoxyphenol]
